{"source": "patent US20160374975A1", "about": "“COMPOSITION FOR TREATMENT OF NAFLD” (Pronova BioPharma Norge AS, priority 2015, published 2016)", "key": {"mice": {"test_system": "mice", "details": "HFD+PCB 153 treated mice compared with HFD treatment alone; cited from earlier work"}, "HepG2 cells": {"test_system": "HepG2 cells", "assay": "Intracellular lipid accumulation in steatic HepG2 cells (in vitro model of NAFLD), oil red O staining, OD 490 nm", "type": "cell-based, human", "details": "steatic HepG2 cells treated with EPA/DHA, PCB 153 final concentration 50 μM, 24 hours at 37° C., versus DMSO alone", "protocol": "Palmitic (C16:0) and oleic (C18:1) acids are the most abundant fatty acids in liver triglycerides in both normal subjects and patients with NAFLD. The human hepatocyte-derived cell line HepG2 cells were seeded in a 96 well plate at a density of 5000 cells/well on Day 1. […] Intracellular accumulation of lipids was detected and quantified by oil red O staining using spectrophotometry at wavelength 490 nm. Oil red O color intracellular lipids droplets after cell fixation with paraformaldehyde. Absence of cell death was confirmed using a colometric lactate dehydrogenase (LDH) assay. Lactate dehydrogenase (LDH) is a cytosolic enzyme present in many different types of cells. When the plasma membrane is damaged, LDH is released into cell culture media. The released LDH was quantified by a coupled enzymatic reaction using a LDH cytotoxicity kit, and following the procedure according to the manufacture's instruction.\nTo assess the effect of n-3 PUFA on experimental NAFLD, the HepG2cells were treated with EPA and DHA at a concentration of 100 μM (1:1), or with fatty acids-free bovine serum albumin (BSA), as a control, together with 1 mM Oleic/Palmitic acid for 24 hours. […] Intracellular accumulation of lipids was detected and quantified by oil red O staining using spectrophotometry at wavelength 490 nm. […]"}, "male C57BL6/J mice": {"test_system": "male C57BL6/J mice", "details": "PCB 153 exposure in high-fat-fed mice; not seen with HFD alone or PCB 153 alone; cited from earlier work"}}, "data": [{"smiles": "Clc1cc(Cl)c(-c2cc(Cl)c(Cl)cc2Cl)cc1Cl", "note": "[PCB 153, polychlorinated biphenyl 153]", "values": [{"measurement": "Reduction of hepatic glutathione", "setting": "mice", "value": 6, "unit": "fold"}, {"measurement": "Effect on the benefit of n-3 PUFA (EPA/DHA) on development of steatosis (intracellular lipids, oil red O)", "setting": "HepG2 cells", "value": "diminish the beneficial effect"}, {"measurement": "Visceral adiposity, hepatic steatosis, and plasma adipokines", "setting": "male C57BL6/J mice", "value": "increased"}]}]}
